Measured values from publication PMC9142583, “Structural basis for broad anti-phage immunity by DISARM” (Nature Communications, 2022).

Columns and labels:
DrmAB [1] = biological target: T1, DrmAB (Serratia, UniProt A0A979HMQ0); assay: cryo-EM structure ([…]-3.[…] A); assay type: binding; conditions: 1 mM ADP, 10 uM DrmAB; pH 7.4, ~25 C; canonical ATP site between RecA1 and RecA2 of DrmA; also in DNA-bound complex 7S9W
T1 construct: DrmAB heterodimer (~1:1, ~220 kDa) co-expressed in E. coli BL21-AI; Ni-NTA and size exclusion
T1 sequence (A0A979HMQ0 1-1325): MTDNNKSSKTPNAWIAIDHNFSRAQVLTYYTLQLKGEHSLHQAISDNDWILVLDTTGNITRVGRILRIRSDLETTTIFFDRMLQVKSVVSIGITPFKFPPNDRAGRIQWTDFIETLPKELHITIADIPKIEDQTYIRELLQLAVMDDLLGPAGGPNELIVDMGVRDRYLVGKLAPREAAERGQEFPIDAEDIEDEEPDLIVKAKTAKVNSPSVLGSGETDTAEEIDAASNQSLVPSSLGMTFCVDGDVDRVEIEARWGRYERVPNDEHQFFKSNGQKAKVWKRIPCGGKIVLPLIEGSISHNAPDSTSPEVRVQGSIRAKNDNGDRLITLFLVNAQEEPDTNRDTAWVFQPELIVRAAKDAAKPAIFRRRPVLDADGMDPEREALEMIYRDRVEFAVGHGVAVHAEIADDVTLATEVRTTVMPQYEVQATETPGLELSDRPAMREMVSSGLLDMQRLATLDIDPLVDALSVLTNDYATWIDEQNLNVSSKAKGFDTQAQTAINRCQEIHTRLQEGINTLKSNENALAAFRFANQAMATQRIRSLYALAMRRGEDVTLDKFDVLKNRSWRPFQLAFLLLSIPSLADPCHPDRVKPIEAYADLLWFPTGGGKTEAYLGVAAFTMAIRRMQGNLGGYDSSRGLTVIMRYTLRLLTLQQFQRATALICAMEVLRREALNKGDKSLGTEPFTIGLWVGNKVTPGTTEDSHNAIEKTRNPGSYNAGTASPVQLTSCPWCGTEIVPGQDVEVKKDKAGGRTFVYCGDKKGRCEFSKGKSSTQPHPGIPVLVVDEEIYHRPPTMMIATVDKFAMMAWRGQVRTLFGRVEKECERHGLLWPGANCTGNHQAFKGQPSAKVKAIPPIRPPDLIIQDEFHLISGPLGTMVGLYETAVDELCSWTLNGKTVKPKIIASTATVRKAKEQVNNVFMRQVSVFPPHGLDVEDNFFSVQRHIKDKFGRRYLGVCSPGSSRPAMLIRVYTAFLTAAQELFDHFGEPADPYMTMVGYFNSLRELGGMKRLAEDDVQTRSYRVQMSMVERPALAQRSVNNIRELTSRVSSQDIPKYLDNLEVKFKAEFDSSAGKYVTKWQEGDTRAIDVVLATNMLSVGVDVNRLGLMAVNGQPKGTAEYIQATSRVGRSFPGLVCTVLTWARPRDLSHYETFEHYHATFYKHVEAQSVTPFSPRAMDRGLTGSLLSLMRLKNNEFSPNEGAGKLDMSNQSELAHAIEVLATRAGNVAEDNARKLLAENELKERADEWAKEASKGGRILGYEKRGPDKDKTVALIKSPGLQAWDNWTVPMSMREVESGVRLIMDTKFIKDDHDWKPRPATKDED
T1 sequence (A0A979HMQ1 1-619 partner): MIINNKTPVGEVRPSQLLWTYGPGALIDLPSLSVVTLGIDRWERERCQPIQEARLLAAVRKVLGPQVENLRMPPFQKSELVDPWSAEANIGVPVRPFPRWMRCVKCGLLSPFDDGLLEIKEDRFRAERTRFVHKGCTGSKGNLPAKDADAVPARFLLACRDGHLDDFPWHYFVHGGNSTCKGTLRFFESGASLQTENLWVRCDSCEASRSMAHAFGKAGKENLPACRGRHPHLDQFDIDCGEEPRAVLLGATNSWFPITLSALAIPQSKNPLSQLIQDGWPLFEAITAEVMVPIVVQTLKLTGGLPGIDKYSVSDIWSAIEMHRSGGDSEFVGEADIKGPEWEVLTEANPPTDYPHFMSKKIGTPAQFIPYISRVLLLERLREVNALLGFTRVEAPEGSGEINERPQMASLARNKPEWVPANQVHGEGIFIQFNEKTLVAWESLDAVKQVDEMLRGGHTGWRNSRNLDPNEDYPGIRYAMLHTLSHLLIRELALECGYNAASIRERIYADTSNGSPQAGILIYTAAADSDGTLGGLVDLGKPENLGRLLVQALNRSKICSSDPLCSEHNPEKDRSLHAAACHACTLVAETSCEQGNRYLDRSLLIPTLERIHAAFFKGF

DrmAB [2] = biological target: T1, DrmAB; assay: ATPase assay, absorbance at […] nm; assay type: biochemical; conditions: needs unmethylated DNA stem loop; mere turnover
[3] = biological target: DrmB (Serratia sp. SCBI DISARM DUF1998-containing protein) (Serratia sp. SCBI); assay: co-purification (Ni-NTA, then SEC); proteins co-expressed in E. coli BL21-AI; His6-DrmB captured on Ni-NTA (25 mM HEPES pH 8, 600 mM NaCl), then HiLoad 16/600 Superdex 200 (25 mM HEPES pH 8, 150 mM NaCl, 5% glycerol, 1 mM DTT), 4 °C; fractions checked by SDS-PAGE

Nc1ncnc2c1ncn2[C@@H]1O[C@H](COP(=O)(O)OP(=O)(O)O)[C@@H](O)[C@H]1O [ADP]
cryo-EM structure (3.3-3.4 A) (DrmAB [1]): We observed strong density corresponding to ADP within our DNA-bound (Fig. 2e) and DNA-free maps

Nc1ncnc2c1ncn2[C@@H]1O[C@H](COP(=O)(O)OP(=O)(O)OP(=O)(O)O)[C@@H](O)[C@H]1O [ATP]
ATPase assay, absorbance at 360 nm (DrmAB [2]): Robust ATPase activity is strongly stimulated by unmethylated DNA

DrmA (Serratia sp. SCBI DISARM helicase) (natural protein)
stoichiometry N [3]: 1
